Each structure is given as a SMILES string.

This is an account of results in patent publication US9926292B2, “Pyridinyl derivatives, pharmaceutical compositions and uses thereof” (Boehringer Ingelheim International GmbH, priority 2016, dated 2018).

In one series the target is T1, AOC3 (Homo sapiens, UniProt Q16853).
T1 construct: expressed in transfected cells; host or cells: CHO cells
T1 sequence (Q16853 1-763): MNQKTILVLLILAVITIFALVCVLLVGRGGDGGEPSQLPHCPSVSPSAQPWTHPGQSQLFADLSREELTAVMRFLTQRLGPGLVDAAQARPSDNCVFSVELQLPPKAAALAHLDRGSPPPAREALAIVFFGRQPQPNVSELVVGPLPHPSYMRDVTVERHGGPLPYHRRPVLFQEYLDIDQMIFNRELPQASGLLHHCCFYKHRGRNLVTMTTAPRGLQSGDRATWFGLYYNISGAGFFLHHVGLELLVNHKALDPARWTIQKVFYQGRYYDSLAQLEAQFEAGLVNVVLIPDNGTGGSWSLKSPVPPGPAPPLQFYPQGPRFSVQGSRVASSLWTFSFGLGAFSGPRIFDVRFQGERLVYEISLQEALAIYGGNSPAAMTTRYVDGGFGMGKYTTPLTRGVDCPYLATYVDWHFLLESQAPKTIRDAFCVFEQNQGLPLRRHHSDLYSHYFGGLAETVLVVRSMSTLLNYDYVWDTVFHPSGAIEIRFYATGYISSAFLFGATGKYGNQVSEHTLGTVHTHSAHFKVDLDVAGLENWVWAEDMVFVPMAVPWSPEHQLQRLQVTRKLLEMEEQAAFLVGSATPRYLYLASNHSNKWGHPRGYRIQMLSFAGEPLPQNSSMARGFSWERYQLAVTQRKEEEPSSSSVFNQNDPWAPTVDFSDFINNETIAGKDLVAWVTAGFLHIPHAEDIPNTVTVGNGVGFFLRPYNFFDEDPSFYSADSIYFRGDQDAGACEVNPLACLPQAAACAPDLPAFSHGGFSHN
In words: AOC3 biochemical assay (MAO-Glo). The note with it: Table 1; read-out: AOC3 IC50. How it is done:
As substrate a derivate of the beetle luciferin ((4S)-4,5-dihydro-2-(6-hydroxybenzothiazolyl)-4-thiazole-carboxylic acid) is used, which is oxidized at a primary amine moiety. After a spontaneous elimination and a catalyzed esterase reaction, the turnover of the luciferine by the luciferase is recorded as a signal of AOC3 activity.
Recombinant CHO cells, overexpressing the human (1500 cells/well), mouse (1000 cells/well) or rat (500 cells/well) AOC3 enzyme are diluted in reaction buffer and added in a volume of 15 μL to the wells. After incubation for 20 minutes at 37° C., 2 μL of MAO substrate (dissolved in DMSO at 16 mM, adjusted to assay concentration in reaction buffer to a final assay concentration of 20 μM) is added and further incubated for 60 minutes at 37° C. The turnover of the substrate is determined by the addition of 20 μL of the detection-mix which was generated by the addition of reconstitution buffer with esterase (PROMEGA, #V1402) to the luciferine detection reagent (PROMEGA, #V1402).

The target in a further series is T2, AOC1 (Homo sapiens, UniProt P19801).
T2 construct: purchased R&D Systems 8297-AO-010
T2 sequence (P19801 20-751): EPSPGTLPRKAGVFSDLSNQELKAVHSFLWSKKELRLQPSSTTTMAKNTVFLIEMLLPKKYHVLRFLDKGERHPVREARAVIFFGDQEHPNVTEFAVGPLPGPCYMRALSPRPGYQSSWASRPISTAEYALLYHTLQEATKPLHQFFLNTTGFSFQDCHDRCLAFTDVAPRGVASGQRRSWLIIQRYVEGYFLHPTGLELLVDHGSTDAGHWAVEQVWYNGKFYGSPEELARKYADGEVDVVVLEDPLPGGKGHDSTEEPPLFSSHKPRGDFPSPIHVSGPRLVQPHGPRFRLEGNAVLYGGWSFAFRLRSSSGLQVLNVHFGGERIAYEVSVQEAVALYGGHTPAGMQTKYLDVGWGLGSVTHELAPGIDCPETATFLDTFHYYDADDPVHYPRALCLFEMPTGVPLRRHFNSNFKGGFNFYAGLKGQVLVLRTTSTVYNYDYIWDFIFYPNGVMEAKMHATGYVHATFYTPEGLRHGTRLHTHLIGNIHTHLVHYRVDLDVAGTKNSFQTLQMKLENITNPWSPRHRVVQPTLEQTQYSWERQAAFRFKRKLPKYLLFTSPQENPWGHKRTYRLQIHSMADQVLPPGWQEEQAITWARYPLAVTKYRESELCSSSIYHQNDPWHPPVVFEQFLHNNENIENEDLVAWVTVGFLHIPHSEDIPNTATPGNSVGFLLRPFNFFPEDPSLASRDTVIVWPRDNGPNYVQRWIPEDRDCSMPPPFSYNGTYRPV
Kind of series: AOC1 biochemical assay (Amplex Red). The note with it: Table 1; read-out: AOC1 IC50. The text has this:
The Amplex® Red Assay (available from Thermo Fisher Scientific) provides a sensitive method for the detection of H2O2 generated during enzymatic reactions like the amine oxidation catalyzed by AOC1.

For the next series, the system named is pigs. The note with it: aminoguanidine 100 mg/kg and gavage of histamine 2 mg/kg; cited from earlier work.

What is called IC50 is the concentration that gives 50% inhibition. The term melting point denotes the temperature of the solid-liquid transition. In the case of `CC(F)(F)COc1ncc(-c2cccc(COC(=O)NC(=N)N)n2)cn1` [Example 20, [6-[2-(2,2-difluoropropoxy)pyrimidin-5-yl]-2-pyridyl]methyl N-carbamimidoylcarbamate], the melting point was found to be 195 °C. Further, the IC50 on AOC3 came out at 5 nM. Besides, the IC50 on AOC1 turned out to be 7210 nM.

`N=C(N)NC(=O)OCc1cccc(-c2cnc(OCc3ccon3)nc2)n1` [Example 24, [6-[2-(isoxazol-3-ylmethoxy)pyrimidin-5-yl]-2-pyridyl]methyl N-carbamimidoylcarbamate] came in with a melting point of 183 °C. The IC50 at AOC3 was 4 nM. In addition, on AOC1, the IC50 turned out to be 1590 nM.

For `N=C(N)NC(=O)OCc1cccc(-c2cnc(OC[C@H]3CC3(F)F)nc2)n1` [Example 26, [6-[2-[[(1R)-2,2-difluorocyclopropyl]methoxy]pyrimidin-5-yl]-2-pyridyl]methyl N-carbamimidoylcarbamate], the melting point was in the range of 193 to 196 °C. For the same compound, the IC50 on AOC3 came out at 3 nM. Further, the IC50 at AOC1 turned out to be 2520 nM.

Consider `N=C(N)NC(=O)OCc1cccc(-c2cnc(OCCCC(F)(F)F)nc2)n1` [Example 36, [6-[2-(4,4,4-trifluorobutoxy)pyrimidin-5-yl]-2-pyridyl]methyl N-carbamimidoylcarbamate], for which the melting point was in the range of 194 to 197 °C. For the same compound, the IC50 at AOC3 worked out at 5 nM. Besides, the IC50 on AOC1 was 1150 nM.

In the case of `N=C(N)NC(=O)OCc1cccc(-c2cnc(OCC3CCN(C(=O)C4CC4)CC3)nc2)n1` [Example 38], the IC50 at AOC3 stood at 3 nM; on AOC1 it was 322 nM.

Take `N=C(N)NN` [aminoguanidine]: the death in the series with pigs is listed as 3 out of 15.
